Test results reported in patent US11535632B2, “Solid forms of an S1P-receptor modulator” (ESCAPE Bio, Inc., priority 2019, dated 2022).

Key:
Type in all cases: physicochemical
[1] = Competitive slurries of Form B and C in process relevant solvents; conditions: 72 hours, start Form B + C
Procedure: Determination of the relative stabilities of Form B and Form C was undertaken to identify which material was more thermodynamically stable in process relevant solvents. As a suspected solvate was isolated from experiments where DMAC was used as a solvent, only DMSO and acetic acid were determined to be appropriate process solvents. Combinations of these solvents with relevant antisolvents were therefore selected for the competitive slurry experiments.
Compound 1 (from Example 2) was dispensed into HPLC vials. To these, 1 ml of selected solvents was subsequently added to give a suspension. Materials were slurried for 72 hours at 90° C., 50° C. or 25° C. with 500 rpm stirring. Material was subsequently isolated by centrifugation and analyzed by XRPD.

[2] = Water activity study; conditions: 4 days, start Form A + Form B
Procedure: About 15 mg of Form A and 15 mg of Form B were added to the saturated solutions of different water activities and equilibrated at 25° C. and 50° C. for 4 days, respectively. The resulting suspensions were filtered, and the solid parts (wet cake) were investigated by XRPD to determine the polymorph.
According to XRPD results, Form B was obtained in methanol/water with water activity (a.w.) ranging from 0.1 to 0.9 at 25° C., as shown in FIGS. 20A-20B. At 50° C., Form B was obtained in methanol/water with a.w. ≥0.2, whereas a mixture of Form A and Form B was obtained in a.w. […] The water activity of the binary solvent system was calculated based on UNIFAC method (UNIQUAC Functional-group Activity Coefficients).

[3] = Solubility and metastable zone width by Crystal 16; conditions: for metastable zone width: 0.5° C./min
Procedure: A Crystal 16 crystallization system (Technobis, NL) was used to determine the solubility and metastable zone of the material as a function of temperature. Slurries of the API, in different overall concentrations, were prepared by adding a known amount of solid to a known amount of chilled solvent (between 0.5 and 1.5 ml) and stirred at 350 rpm using a magnetic bar. The saturation temperature was measured through cycles of heating and cooling from 20 to 90° C. at 0.5° C./min.
Upon increasing the temperature, the solid completely dissolved and the suspension became a clear solution such that the light transmission reached its maximum value. This temperature was assigned as the clear point, which was assumed to coincide with the saturation temperature. Then, by cooling the solution at a rate of 0.5° C./min, the temperature at which particles first formed was detected by a decrease in the light transmission. This was assigned as the cloud point. The points were fitted by a Van′t Hoff equation and the difference between the cloud and the clear points defined the metastable zone width (MSZW) of the system. The instrument control software was Crystallization Systems and the data were analyzed using Crystal Clear and Microsoft Excel.
The solubility of compound 1 (various masses) in DMAC and DMSO (1 ml) was analyzed on the Crystal 16 (between 25-90° C. for DMSO and 0-90° C. for DMAC). A heating/cooling rate of 0.5° C./min and a stirring rate of 300 rpm was used for all samples. The resulting turbidity/temperature plots were analyzed to obtain solubility curves and determine the metastable zone width. Any precipitated solids were isolated by filtration and analyzed by XRPD.

O=C(O)[C@H]1C[C@@H](N2CCc3oc(-c4ccc(OCc5ccc(Cl)cc5)cc4)nc3C2)C1 [Compound 1, (1s,3s)-3-(2-(4-((4-chlorobenzyl)oxy)phenyl)-6,7-dihydrooxazolo[4,5-c]pyridin-5(4H)-yl)cyclobutane-1-carboxylic acid]
XRPD analysis after slurrying ([1]; Acetic acid:H2O (1:1), 25° C.): Form B
XRPD analysis after slurrying ([1]; Acetic acid:H2O (1:1), 50° C.): Form B
XRPD analysis after slurrying ([1]; Acetic acid:H2O (1:1), 90° C.): Form B
XRPD analysis after slurrying ([1]; Acetic acid:MeCN (1:3), 25° C.): Form B
XRPD analysis after slurrying ([1]; Acetic acid:MeCN (1:3), 50° C.): Form B
XRPD analysis after slurrying ([1]; Acetic acid:MeCN (1:3), 90° C.): Form B
XRPD analysis after slurrying ([1]; DMSO, 25° C.): Form B
XRPD analysis after slurrying ([1]; DMSO, 50° C.): Poorly crystalline
XRPD analysis after slurrying ([1]; DMSO, 90° C.): poorly crystalline Form A
XRPD analysis after slurrying ([1]; DMSO:H2O (1:1), 25° C.): Form B
XRPD analysis after slurrying ([1]; DMSO:H2O (1:1), 50° C.): Form B
XRPD analysis after slurrying ([1]; DMSO:H2O (1:1), 90° C.): Form B
XRPD of solid after equilibration ([2]; Methanol/water (20:80, v/v) a.w. = 0.9, 25° C.): Form B
XRPD of solid after equilibration ([2]; Methanol/water (20:80, v/v) a.w. = 0.9, 50° C.): Form B
XRPD of solid after equilibration ([2]; Methanol/water (57:43, v/v) a.w. = 0.7, 25° C.): Form B
XRPD of solid after equilibration ([2]; Methanol/water (57:43, v/v) a.w. = 0.7, 50° C.): Form B
XRPD of solid after equilibration ([2]; Methanol/water (69:31, v/v) a.w. = 0.6, 25° C.): Form B
XRPD of solid after equilibration ([2]; Methanol/water (69:31, v/v) a.w. = 0.6, 50° C.): Form B
XRPD of solid after equilibration ([2]; Methanol/water (77:23, v/v) a.w. = 0.5, 25° C.): Form B
XRPD of solid after equilibration ([2]; Methanol/water (77:23, v/v) a.w. = 0.5, 50° C.): Form B
XRPD of solid after equilibration ([2]; Methanol/water (84:16, v/v) a.w. = 0.4, 25° C.): Form B
XRPD of solid after equilibration ([2]; Methanol/water (84:16, v/v) a.w. = 0.4, 50° C.): Form B
XRPD of solid after equilibration ([2]; Methanol/water (89:11, v/v) a.w. = 0.3, 25° C.): Form B
XRPD of solid after equilibration ([2]; Methanol/water (89:11, v/v) a.w. = 0.3, 50° C.): Form B
XRPD of solid after equilibration ([2]; Methanol/water (93:7, v/v) a.w. = 0.2, 25° C.): Form B
XRPD of solid after equilibration ([2]; Methanol/water (93:7, v/v) a.w. = 0.2, 50° C.): Form B
XRPD of solid after equilibration ([2]; Methanol/water (97:3, v/v) a.w. = 0.1, 25° C.): Form B
XRPD of solid after equilibration ([2]; Methanol/water (97:3, v/v) a.w. = 0.1, 50° C.): Form A + B
metastable zone width ([3]; DMAC, 0-90° C.): ca. 30 °C
metastable zone width ([3]; DMSO, 25-90° C.): ca. 30 °C
solubility ([3]; neat acetic acid): very high solubility
